pIC50: −log10 of the molar value.
Assays:
prostate cancer cell = prostate cancer cell proliferation, different cancer cell lines; type: cell-based; conditions: 72 hours
22Rv1 (AR+) cell lines = test: cell proliferation, 22Rv1; type: cell-based; conditions: 72 hours
PC3 (AR-) cell lines = test: cell proliferation, PC3; type: cell-based; conditions: 72 hours
DU-145 (AR-) cell lines = test: cell proliferation, DU-145; type: cell-based; conditions: 72 hours
LNCaP = LNCaP reporter assay; type: cell-based; conditions: Homo sapiens
From the text: (§1) To meet this need, compounds binding to AR-v7 were identified using the combination of a small molecule microarray (SMM) screen of 50,000 compounds, qPCR, and reporter assays. The SMM was screened against a functional AR-truncate composed of the NTD and DBD (exons 1-3) and therefore targeting these domains specifically. Candidate compounds were further evaluated in a series of assays designed to show specificity to AR-sensitive cell lines.
Compounds of the invention may also be identified via a reporter assay. Reporter assays are commonly used to study signaling pathways, gene expression and regulation at the transcriptional level, and the structure of regulatory elements. In general, a reporter assay comprises a regulatory element of interest (e.g. promoter DNA) along with a reporter gene (e.g., gene encoding a reporter protein) cloned into a vector and transfected into cells. In certain embodiments, a reporter is a protein. In certain embodiments, a reporter is a protein with an easily measureable activity. “Easily measureable activity” (or simply “activity”) can refer to any activity that can be measured through methods known in the art, such as fluorescence, enzymatic activities that generate fluorescent or luminescent products, or indirectly with antibodies. […]

aggregation monitoring = type: physicochemical; conditions: at IC50 in RPMI, DMSO, or PBS
Experimental: All compounds were evaluated in a reporter gene assay (22Rv1 cell line lentiviral transduced with CMV-firefly luciferase) to monitor transcriptional effects and two cell viability assays (Cell-titer blue; PC3 cell line, an AR insensitive cell line, and LNCaP cell line, an AR sensitive cell line). The compounds were also monitored for aggregation.

LNCaP (AR+) cell lines = test: cell proliferation, LNCaP; type: cell-based, human; conditions: 72 hours
AR-v7 = biological target: T1, AR-v7 (Homo sapiens, UniProt P10275); test: small molecule microarray (SMM) screen, binding to AR-v7; conditions: SMM screened against AR-truncate of NTD and DBD (exons 1-3), with qPCR and reporter assays
T1 construct: screened against a functional AR-truncate composed of the NTD and DBD (exons 1-3)
T1 sequence (P10275 1-628 limits assumed): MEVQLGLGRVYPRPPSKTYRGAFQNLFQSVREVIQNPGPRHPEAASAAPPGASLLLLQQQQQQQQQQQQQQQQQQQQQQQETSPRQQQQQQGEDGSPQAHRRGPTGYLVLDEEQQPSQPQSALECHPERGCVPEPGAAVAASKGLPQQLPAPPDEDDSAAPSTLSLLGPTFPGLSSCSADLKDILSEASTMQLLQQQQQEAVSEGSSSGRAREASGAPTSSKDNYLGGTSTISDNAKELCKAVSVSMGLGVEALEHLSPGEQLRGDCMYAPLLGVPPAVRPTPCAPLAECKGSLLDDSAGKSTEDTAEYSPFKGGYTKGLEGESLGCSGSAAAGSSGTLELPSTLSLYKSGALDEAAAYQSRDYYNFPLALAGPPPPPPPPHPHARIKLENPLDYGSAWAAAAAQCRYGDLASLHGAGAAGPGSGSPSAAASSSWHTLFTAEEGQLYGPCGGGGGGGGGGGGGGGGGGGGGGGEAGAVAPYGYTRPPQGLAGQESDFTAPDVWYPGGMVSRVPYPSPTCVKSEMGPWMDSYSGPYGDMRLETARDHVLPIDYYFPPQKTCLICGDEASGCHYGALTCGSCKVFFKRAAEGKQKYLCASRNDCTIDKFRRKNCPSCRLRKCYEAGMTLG
From the text: as §1

VCaP (AR+) cell lines = test: cell proliferation, VCaP; type: cell-based; conditions: 72 hours

| SMILES | prostate cancer cell proliferation (relative proliferation, percent confluence) (prostate cancer cell) | cell proliferation (percent confluence) (22Rv1 (AR+) cell lines) | cell proliferation (percent confluence) (PC3 (AR-) cell lines) | cell proliferation (percent confluence) (DU-145 (AR-) cell lines) | pIC50 (LNCaP) | formation of aggregates (aggregation monitoring) | cell proliferation (percent confluence) (LNCaP (AR+) cell lines) | binding to AR-v7 (AR-v7) | cell proliferation (percent confluence) (VCaP (AR+) cell lines) |
| --- | --- | --- | --- | --- | --- | --- | --- | --- | --- |
| O=C(NCCC1C[C@@H]2C=C[C@H]1C2)c1cccc(OC2CCN(C(=O)C3CC3)CC2)c1 (stereo partly drawn) [Compound (1), N-(2-((1S,4S)-bicyclo[2.2.1]hept-5-en-2-yl)ethyl)-3-((1-(cyclopropanecarbonyl)piperidin-4-yl)oxy)benzamide] | stagnates prostate cancer cell proliferation | stagnates prostate cancer cell proliferation | stagnates prostate cancer cell proliferation | stagnates prostate cancer cell proliferation | 5.27 | does not form aggregates | stagnates prostate cancer cell proliferation | found to bind to AR-v7 | stagnates prostate cancer cell proliferation |
| Cc1c(C(=O)N(C)Cc2cccc3ncccc23)sc2ncnc(NCC3C[C@@H]4C=C[C@H]3C4)c12 (stereo partly drawn) [Compound (2), 4-((((1R,4R)-bicyclo[2.2.1]hept-5-en-2-yl)methyl)amino)-N,5-dimethyl-N-(quinolin-5-ylmethyl)thieno[2,3-d]pyrimidine-6-carboxamide] |  |  |  |  | 5.16 |  |  | found to bind to AR-v7 |  |

Source: patent US10961216B2, “Small molecule modulators of the androgen receptor” (Massachusetts Institute of Technology, priority 2017, dated 2021)
